Source: patent US8716273B2, “N-(amino-heteroaryl)-1H-pyrrolopyridine-2-carboxamides derivatives preparation thereof and their use in therapy” (SANOFI, priority 2006, dated 2014)

Experiments:
[1] = target: T1, TRPV1 receptors (Mus musculus, UniProt Q704Y3); test: Mouse cornea irritation test (capsaicin-induced eye rubbing); type: in vivo; settings: compound 500 μM, 2 μl local application to the cornea 10 minutes before 2 μl of 160 μM capsaicin, rubbings counted for 2 minutes
T1 construct: from tissue; host or cells: cornea of the living mouse (C-fibre innervation)
Method: Mouse Cornea Irritation Test
The irritant nature of capsaicin is easily appreciated at the level of the cornea since this organ is one of the most innervated with the C-fibres. In this context, according to preliminary experiments, the application of a very small amount of capsaicin (2 μl at a concentration of 160 μM) to the surface of the cornea of an animal leads to a certain number of stereotypical behaviors associated with irritation, which are easily listed. These include: blinking, rubbing of the instilled eye by the ipsilateral forepaw, rubbing of the face with both forepaws, scratching of the ipsilateral face by the hindpaw. […] Moreover, its appearance is also normal. […] It can be concluded that the duration of action of capsaicin at these doses is less than 2 minutes.
SUMMARY OF THE METHODOLOGY
The principle of the series of tests is to determine whether the compounds of the invention can influence the behavioral response induced by a specified amount of capsaicin. The capsaicin is initially diluted to 25 mM in DMSO and diluted, for final use, in physiological serum with Tween 80 at 10%. It appears, from control studies, that in these conditions the solvent has no effect.
In practice, the test product, prepared at 25 mM in DMSO and diluted for final use in physiological serum with 10% of Tween 80 at the strongest concentration of 500 μM, is administered by local application to the surface of the cornea at a volume of 2 μl, 10 minutes before application of the capsaicin. The animal receives an ocular instillation of 2 μl of a 160 μM capsaicin solution prepared as stated above. For an observation period of 2 minutes following instillation, the number of times the instilled eye is rubbed by the ipsilateral forepaw is counted for each animal.
For a given group, the percentage protection is calculated as follows: P=100−((average number of scratchings of the group treated with the compound/average number of scratchings of the group treated with the solvent)×100)
This percentage protection is averaged for each group of animals (n=number of animals tested with the compound of the invention).

[2] = target: T2, TRPV1 receptor (Rattus norvegicus, UniProt O35433); test: Test of inhibition of the current induced by capsaicin on the rat DRG (whole-cell patch-clamp); type: cell-based; settings: inhibition of the capsaicin control response, primary culture of neonate rat DRG neurons
T2 construct: The neurons of the DRG express the TRPV1 receptor naturally; endogenous in cells; host or cells: primary culture of neonatal rat dorsal root ganglion neurons
Method: Test of Inhibition of the Current Induced by Capsaicin on the Rat DRG
Primary Culture of Rat Dorsal Root Ganglion (DRG) Cells:
The neurons of the DRG express the TRPV1 receptor naturally.
Primary cultures of DRG of neonate rats are prepared from 1-day-old rats. Briefly, after dissection, the ganglia are trypsinized and the cells are dissociated mechanically by careful trituration. The cells are resuspended in Eagle's basic culture medium containing 10% of fetal calf serum, 25 mM KCl, 2 mM glutamine, 100 μg/ml gentamicin and 50 ng/ml of NGF, then deposited on glass slides covered with laminin (0.25×10^6 cells per slide), which are then placed in Corning 12-well plates. The cells are incubated at 37° C. in a humidified atmosphere containing 5% CO2 and 95% air. Cytosine β-D-arabinoside (1 μM) is added 48 h after culture set-up, to prevent the development of non-neuronal cells. The slides are transferred to the test chambers for patch-clamp investigations after 7-10 days in culture.
The measuring chambers (volume 800 μl) containing the cellular preparation are placed on the stage of an inverted microscope (Olympus IMT2) fitted with Hoffman optics (Modulation Contrast, New York) and are observed at magnification of 400×. The chambers are continually perfused by gravity (2.5 ml/min) by means of a solution distributor accepting 8 inlets and whose single outlet, comprising a polyethylene tube (inside diameter 500 μm) is positioned at less than 3 mm from the cell under investigation. […] The total currents (membrane potential fixed at −60 mV) were recorded with an Axopatch 1D amplifier (Axon Instruments, Foster City, Calif.), connected to a PC controlled by Pclamp8 software (Axon Instrument). The current traces are recorded on paper and simultaneously digitized (sampling frequency […]) and saved to the hard disk of the PC.
The application of a micromolar solution of capsaicin induces a cationic input current on the DRG cells (voltage fixed at −70 mV). […] The results are expressed as percentage inhibition of the capsaicin control response.

T1 sequence (Q704Y3 whole entry): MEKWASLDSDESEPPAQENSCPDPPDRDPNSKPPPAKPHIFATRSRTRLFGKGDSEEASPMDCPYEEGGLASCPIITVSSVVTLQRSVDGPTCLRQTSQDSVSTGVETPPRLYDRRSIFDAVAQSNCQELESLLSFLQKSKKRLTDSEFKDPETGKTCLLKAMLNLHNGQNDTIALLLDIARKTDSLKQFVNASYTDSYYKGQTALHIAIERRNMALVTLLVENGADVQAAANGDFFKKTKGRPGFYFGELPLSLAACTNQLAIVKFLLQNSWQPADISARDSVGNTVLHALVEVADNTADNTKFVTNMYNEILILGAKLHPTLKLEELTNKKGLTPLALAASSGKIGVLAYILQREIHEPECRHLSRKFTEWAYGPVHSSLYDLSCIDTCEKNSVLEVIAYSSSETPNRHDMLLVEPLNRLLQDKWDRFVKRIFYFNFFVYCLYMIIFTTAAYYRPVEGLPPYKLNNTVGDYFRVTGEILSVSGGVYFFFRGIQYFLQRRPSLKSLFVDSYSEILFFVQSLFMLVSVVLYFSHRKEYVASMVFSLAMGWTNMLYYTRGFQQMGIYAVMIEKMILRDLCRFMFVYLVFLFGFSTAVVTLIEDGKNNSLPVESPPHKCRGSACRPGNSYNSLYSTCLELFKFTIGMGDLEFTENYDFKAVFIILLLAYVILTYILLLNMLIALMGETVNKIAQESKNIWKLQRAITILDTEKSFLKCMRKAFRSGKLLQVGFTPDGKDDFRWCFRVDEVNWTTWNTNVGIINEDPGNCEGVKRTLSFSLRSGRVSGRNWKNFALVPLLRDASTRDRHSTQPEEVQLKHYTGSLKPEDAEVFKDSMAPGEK
T2 sequence (O35433 whole entry): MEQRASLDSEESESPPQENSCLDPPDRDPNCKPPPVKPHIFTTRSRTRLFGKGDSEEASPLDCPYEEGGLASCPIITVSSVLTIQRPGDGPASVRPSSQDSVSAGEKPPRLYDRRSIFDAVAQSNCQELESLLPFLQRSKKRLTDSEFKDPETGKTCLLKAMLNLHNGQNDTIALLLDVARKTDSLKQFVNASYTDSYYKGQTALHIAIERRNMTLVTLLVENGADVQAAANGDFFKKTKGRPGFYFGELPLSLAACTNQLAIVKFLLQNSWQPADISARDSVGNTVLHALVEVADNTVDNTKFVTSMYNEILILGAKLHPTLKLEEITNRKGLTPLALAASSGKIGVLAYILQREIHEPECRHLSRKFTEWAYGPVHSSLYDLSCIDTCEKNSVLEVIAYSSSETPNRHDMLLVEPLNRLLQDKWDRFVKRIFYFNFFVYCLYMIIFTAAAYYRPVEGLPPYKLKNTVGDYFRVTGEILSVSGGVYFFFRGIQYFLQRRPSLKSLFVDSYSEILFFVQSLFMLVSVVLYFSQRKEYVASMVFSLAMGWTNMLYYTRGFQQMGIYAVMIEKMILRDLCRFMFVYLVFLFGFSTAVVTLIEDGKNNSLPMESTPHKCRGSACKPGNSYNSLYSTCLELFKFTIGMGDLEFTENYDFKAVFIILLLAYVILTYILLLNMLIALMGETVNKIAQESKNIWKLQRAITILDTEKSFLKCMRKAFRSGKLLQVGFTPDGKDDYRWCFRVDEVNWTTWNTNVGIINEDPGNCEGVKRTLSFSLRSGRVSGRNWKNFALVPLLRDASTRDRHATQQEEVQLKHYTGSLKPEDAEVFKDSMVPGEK

Compound	% P 500 μM (percentage protection) [1] [%]	other results
CNc1ccc(NC(=O)c2cc3cc(C(F)(F)F)cnc3n2Cc2cccc(F)c2)cn1 [Compound 1, N-[(6-Methylamino)pyridin-3-yl]-5-trifluoromethyl-1-(3-fluorobenzyl)-1H-pyrrolo[2,3-b]pyridine-2-carboxamide]	51	–
Cc1cc(N(C)C)ncc1NC(=O)c1cc2cc(C(F)(F)F)cnc2n1Cc1cccc(F)c1.Cl [Compound 3, N-(6-N,N-Dimethylamino-4-methyl-pyridin-3-yl)-5-trifluoromethyl-1-(3-fluorobenzyl)-1H-pyrrolo[2,3-b]pyridine-2-carboxamide hydrochloride (1:1)]	34	–
CN(C)c1ncc(NC(=O)c2cc3cc(C(F)(F)F)cnc3n2Cc2cccc(F)c2)cc1C(F)(F)F.Cl [Compound 4, N-(6-N,N-Dimethylamino-5-trifluoromethyl-pyridin-3-yl)-5-trifluoromethyl-1-(3-fluorobenzyl)-1H-pyrrolo[2,3-b]pyridine-2-carboxamide hydrochloride (1:1)]	–	Percentage inhibition in patch DRG ([2]; compound at 1 nM): 98% (1 nM)
O=C(Nc1ccc(N2CCCC2)nc1)c1cc2cc(C(F)(F)F)cnc2n1Cc1cccc(F)c1 [Compound 6, N-[6-(Pyrrolidin-1-yl)pyridin-3-yl]-5-trifluoromethyl-1-(3-fluorobenzyl)-1H-pyrrolo[2,3-b]pyridine-2-carboxamide]	30	inhibition at 0.001 µM ([2]; DRG neuron, compound at 1 nM, read-out: Percentage inhibition in patch DRG): 71%
O=C(Nc1ccc(N2CCCC2)nc1)c1cc2cc(C(F)(F)F)cnc2n1Cc1ccncc1 [Compound 9, N-[6-(Pyrrolidin-1-yl)pyridin-3-yl]-5-trifluoromethyl-1-[(4-pyridyl)methyl]-1H-pyrrolo[2,3-b]pyridine-2-carboxamide]	43	–
O=C(Nc1ccc(N2CCC(F)(F)C2)nc1)c1cc2cc(C(F)(F)F)cnc2n1Cc1cccc(F)c1 [Compound 12, N-[6-(3,3-difluoropyrrolidin-1-yl)pyridin-3-yl]-5-trifluoromethyl-1-(3-fluorobenzyl)-1H-pyrrolo[2,3-b]pyridine-2-carboxamide]	83	–
O=C(Nc1ccc(N2CCC2)nc1)c1cc2cc(C(F)(F)F)cnc2n1Cc1cccc(F)c1 [Compound 15, N-[6-(Azetidin-1-yl)pyridin-3-yl]-5-trifluoromethyl-1-(3-fluorobenzyl)-1H-pyrrolo[2,3-b]pyridine-2-carboxamide]	–	inhibition at 0.01 µM ([2]; DRG neuron, compound at 10 nM, read-out: Percentage inhibition in patch DRG): 100%
